From US9938222B2 (BRISTOL-MYERS SQUIBB COMPANY, priority 2014, dated 2018)

target: human GPR120 (Homo sapiens (Human), UniProt Q5NUL3); assay: GPR120 pERK AlphaScreen SureFire Assay (human GPR120 pERK assay); format: cell-based; conditions: CHO cells stably transfected with short form of human GPR120
From the text: GPR120 activity was monitored by measuring phosphorylation of ERK (pERK), since G protein receptors are known to activate the ERK signaling cascade either directly and/or through recruitment of arrestin that serves as a scaffold for downstream signaling events.
GPR120 pERK AlphaScreen SureFire Assay
The human and mouse GPR120-mediated intracellular phosphorylated ERK assays were established using CHOA12 cells stably transfected with the short form of human or mouse GPR120 receptor. Cells were cultured in growth medium consisting of F-12 media (Invitrogen Cat. #11765) with 5% Charcoal/Dextran FBS (Invitrogen Cat. #12676-029), 500 μg/mL GENETICIN® (Life Technologies Cat. #10131-027) and 250 μg/mL Zeocin (Invitrogen Cat. #R250-01). Cells were cryo-preserved at a concentration of 2×10^7 cells/mL, in 90% Charcoal/Dextran FBS and 10% DMSO, and frozen in liquid nitrogen at a low passage number.
For the pERK assay, 2×10^7 cells/mL cryopreserved human and mouse cells were thawed rapidly in a 37° C. water bath and added to a T-225 flask containing 50 mL growth medium. The flasks were placed in a tissue culture incubator overnight (37° C., 5% CO2). The next day, cells were harvested with trypsin (Gibco Cat. #25300-054), resuspended in serum-containing growth medium and counted using a Cellometer and volume adjusted to a concentration of 0.6×10^6 cells/mL. Cells were plated into 384-well clear bottom tissue culture plates (BD Cat. #353962) at 50 μL/well, for a density of 30,000 cells/well using a MULTIDROP® and incubated for 16-18 hours (overnight) at 37° C. with 5% CO2. The next day, cells were serum starved in 30 μL of F-12 media without any serum or antibiotics for 2 hours at 37° C.
Test compounds were 3-fold, 11-point serially diluted in DMSO in a REMP assay plate (Matrix Cat. #4307) by Tecan and 5 μL was transferred into an ECHO source plate (Labcyte Cat. #LC-0200). Cells were then stimulated with 50 nL of compound dilutions using ECHO liquid handler for 7 min at 37° C. Compounds ranged from final assay concentrations of 33.33 μM to 0.56 nM.
The media was then dumped and cells lysed with 20 μL of 1× Lysis buffer from the AlphaScreen SureFire Phospho-ERK 1/2 Kit (Perkin Elmer Cat. #6760617M). The lysis buffer was diluted 5-fold with water before use. The plate was agitated on a shaker for 10 min after which 2 μL was transferred into a 384-well white proxiplate (Perkin Elmer Cat. #6008289). The SureFire assay reagent mix was prepared by mixing 60 parts Reaction Buffer, 10 parts Activation Buffer, 1 part Donor Beads, 1 part Acceptor Beads (Perkin Elmer Cat. #TGRES10K). 3.5 μL/well of this reagent mix was manually added to the proxiplate with a multichannel pipettor. Plates were spun down at 1000 rpm for 2 min, followed by light-protected incubation at room temperature for 2 hours. The plates were read on the Alpha-technology compatible Envision multilabel plate reader using AlphaScreen protocol according to manufacturer's specifications. The agonist effect of compounds was expressed as 100×(average sample-average blank)/(average total-average blank) where sample is the luminescence activity in the presence of test compound, blank is equal to the luminescence activity in the presence of DMSO control and the total is signal induced by 50 μM linolenic acid as reference compound. Activation data for the test compound over a range of concentrations was plotted as percentage activation of the test compound (100%=maximum response). After correcting for background, EC50 values were determined. The EC50 is defined as the concentration of test compound which produces 50% of the maximal response and was quantified using the 4 parameter logistic equation to fit the data.
The human and mouse GPR120-mediated intracellular phosphorylated ERK assays were also established using CHO-K1 cells stably transfected with the short form of human or mouse GPR120 receptor. […]

Chain of human GPR120 (Q5NUL3 whole entry): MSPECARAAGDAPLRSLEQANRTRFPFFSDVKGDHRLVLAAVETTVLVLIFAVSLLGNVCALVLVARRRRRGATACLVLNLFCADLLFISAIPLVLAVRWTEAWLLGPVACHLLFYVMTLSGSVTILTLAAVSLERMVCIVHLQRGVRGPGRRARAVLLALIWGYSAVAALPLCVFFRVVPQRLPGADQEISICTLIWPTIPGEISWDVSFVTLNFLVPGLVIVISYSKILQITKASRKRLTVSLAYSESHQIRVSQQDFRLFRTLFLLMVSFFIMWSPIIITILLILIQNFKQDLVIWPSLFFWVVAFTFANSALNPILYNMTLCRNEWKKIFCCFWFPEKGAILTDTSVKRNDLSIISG

First: O=C(O)C1CC1COc1ccc(-c2cc(OC3CCCC3)ccc2F)cc1 (racemic) [Example 50, Trans-2-(((5′-cyclopentyloxy)-2′-fluoro-[1,1′-biphenyl]-4-yl)oxy)methyl) cyclopropanecarboxylic acid]
Second: CCOc1ccc(F)c(-c2ccc(OC[C@@H]3C[C@H]3C(=O)O)cc2)c1 (racemic) [Example 68, Trans-2-(((5′-ethoxy-2′-fluoro-[1,1′-biphenyl]-4-yl)oxy)methyl) cyclopropanecarboxylic acid]
The EC50 of the first is 2.5-fold lower: 260 nM for the first, 660 nM for the second. The first is the more potent here.

`O=C(O)C1CC1COc1ccc(-c2cc(OC(F)(F)F)ccc2F)cc1` (racemic) [Example 51, Trans-2-(((2′-fluoro-5′-(trifluoromethoxy)-[1,1′-biphenyl]-4-yl)oxy)methyl)cyclopropanecarboxylic acid] and `O=C(O)[C@@H]1C[C@H]1COc1ccc(-c2cc(OC(F)(F)F)ccc2Cl)cc1` (racemic) [Example 54, Trans-2-(((2′-chloro-5′-(trifluoromethoxy)-[1,1′-biphenyl]-4-yl)oxy)methyl)cyclopropanecarboxylic acid] are within 1.5-fold of each other in EC50: 470 nM for the first, 500 nM for the second.

`CC(C)Oc1cc(F)cc(-c2ccc(OC[C@@H]3C[C@H]3C(=O)O)cc2)c1` (racemic) [Example 55, Trans-2-(((3′-fluoro-5′-isopropoxy-[1,1′-biphenyl]-4-yl)oxy)methyl) cyclopropanecarboxylic acid] and `CC(C)COc1cc(F)cc(-c2ccc(OC[C@@H]3C[C@H]3C(=O)O)cc2)c1` (racemic) [Example 72, Trans-2-(((3′-fluoro-5′-isobutoxy-[1,1′-biphenyl]-4-yl)oxy)methyl) cyclopropanecarboxylic acid] are within 1.5-fold of each other in EC50: 1060 nM for the first, 1550 nM for the second.

Compared with `CC(C)Oc1cc(F)cc(-c2ccc(OC[C@@H]3C[C@H]3C(=O)O)cc2F)c1` (racemic) [Example 60, Trans-2-(((2,3′-difluoro-5′-isopropoxy-[1,1′-biphenyl]-4-yl)oxy)methyl) cyclopropanecarboxylic acid], `CC(C)Oc1cc(F)c(F)c(-c2ccc(OC[C@@H]3C[C@H]3C(=O)O)cc2F)c1` (racemic) [Example 61, Trans-2-(((2,2′,3′-trifluoro-5′-isopropoxy-[1,1′-biphenyl]-4-yl)oxy)methyl)cyclopropanecarboxylic acid] is 4.9-fold higher in EC50: 570 nM for the first, 2780 nM for the second. The first is the more potent here.

Compared with `CC(C)Oc1ccc(F)c(-c2ccc(OC[C@@H]3C[C@H]3C(=O)O)c(F)c2)c1` (racemic) [Example 62, Trans-2-(((2′,3-difluoro-5′-isopropoxy-[1,1′-biphenyl]-4-yl)oxy)methyl) cyclopropanecarboxylic acid], `CC(C)Oc1ccc(F)c(-c2ccc(OC[C@@H]3C[C@H]3C(=O)O)c(C=O)c2)c1` (racemic) [Example 87, Trans-2-(((2′-fluoro-3-formyl-5′-isopropoxy-[1,1′-biphenyl]-4-yl)oxy)methyl) cyclopropanecarboxylic acid] is 5.7-fold higher in EC50: 310 nM for the first, 1760 nM for the second. The first is the more potent here.

First: CC(C)Oc1cc(F)c(F)c(-c2ccc(OC[C@@H]3C[C@H]3C(=O)O)c(F)c2)c1 (racemic) [Example 65, Trans-2-(((2′,3,3′-trifluoro-5′-isopropoxy-[1,1′-biphenyl]-4-yl)oxy)methyl)cyclopropanecarboxylic acid]
Second: CC(C)Oc1cc(-c2ccc(OC[C@@H]3C[C@H]3C(=O)O)cc2)c(F)cn1 (racemic) [Example 70, Trans-2-((4-(5-fluoro-2-isopropoxypyridin-4-yl)phenoxy)methyl)cyclopropanecarboxylic acid]
The EC50 of the first is 7.3-fold lower: 330 nM for the first, 2400 nM for the second.

Compared with `CC(C)Sc1ncc(C(F)(F)F)cc1-c1ccc(OC[C@@H]2C[C@H]2C(=O)O)cc1` (racemic) [Example 69, Trans-2-((4-(2-(isopropylthio)-5-(trifluoromethyl)pyridin-3-yl)phenoxy)methyl)cyclopropanecarboxylic acid], `COc1ccc(OC(F)(F)F)cc1-c1ccc(OC[C@@H]2C[C@H]2C(=O)O)cc1` (racemic) [Example 71, Trans-2-(((2′-methoxy-5′-(trifluoromethoxy)-[1,1′-biphenyl]-4-yl)oxy)methyl)cyclopropanecarboxylic acid] is 7.6-fold lower in EC50: 10800 nM for the first, 1430 nM for the second. The second is the more potent here.

First: CC(C)Oc1cccc(-c2ccc(OC[C@@H]3C[C@H]3C(=O)O)cc2)c1 (racemic) [Example 73, Trans-2-(((3′-isopropoxy-[1,1′-biphenyl]-4-yl)oxy)methyl) cyclopropanecarboxylic acid]
Second: COCc1cc(OC(C)C)cc(-c2ccc(OC[C@@H]3C[C@H]3C(=O)O)cc2)c1 (racemic) [Example 86, Trans-2-(((3′-isopropoxy-5′-(methoxymethyl)-[1,1′-biphenyl]-4-yl)oxy)methyl) cyclopropanecarboxylic acid]
The EC50 of the first is 2.6-fold lower: 1380 nM for the first, 3620 nM for the second. The first is the more potent here.

First: COc1cc(OC(F)(F)F)cc(-c2ccc(OC[C@@H]3C[C@H]3C(=O)O)cc2)c1 (racemic) [Example 74, Trans-2-(((3′-methoxy-5′-(trifluoromethoxy)-[1,1′-biphenyl]-4-yl)oxy)methyl)cyclopropanecarboxylic acid]
Second: COc1ccc(OC(F)(F)F)cc1-c1ccc(CC[C@@H]2C[C@H]2C(=O)O)cc1 (racemic) [Example 79, Trans-2-(2-(2′-methoxy-5′-(trifluoromethoxy)-[1,1′-biphenyl]-4-yl)ethyl)cyclopropanecarboxylic acid]
The EC50 of the first is 2.4-fold lower: 610 nM for the first, 1440 nM for the second.

Compared with `O=C(O)[C@@H]1C[C@H]1CCc1ccc(-c2cccc(Oc3ccccc3)c2)cc1` (racemic) [Example 75, Trans-2-(2-(3′-phenoxy-[1,1′-biphenyl]-4-yl)ethyl) cyclopropanecarboxylic acid], `O=C(O)[C@@H]1C[C@H]1CCc1ccc(-c2cc(Oc3ccccc3)ccc2F)cc1` (racemic) [Example 76, Trans-2-(2-(2′-fluoro-5′-phenoxy-[1,1′-biphenyl]-4-yl)ethyl) cyclopropanecarboxylic acid] is 2.6-fold higher in EC50: 180 nM for the first, 470 nM for the second. The first is the more potent here.

First: COc1cc(Cl)cc(-c2ccc(CC[C@@H]3C[C@H]3C(=O)O)cc2)c1 (racemic) [Example 77, Trans-2-(2-(3′-chloro-5′-methoxy-[1,1′-biphenyl]-4-yl)ethyl) cyclopropanecarboxylic acid]
Second: COc1ncc(Cl)cc1-c1ccc(CC[C@@H]2C[C@H]2C(=O)O)cc1 (racemic) [Example 78, Trans-2-(4-(5-chloro-2-methoxypyridin-3-yl)phenethyl) cyclopropanecarboxylic acid]
The EC50 of the first is 2.6-fold lower: 2340 nM for the first, 6090 nM for the second.

`Cc1cc(-c2ccc(OC[C@@H]3C[C@H]3C(=O)O)cc2)n(-c2ccc(Cl)cc2)n1` (racemic) [Example 82, Trans-2-((4-(1-(4-chlorophenyl)-3-methyl-1H-pyrazol-5-yl)phenoxy)methyl) cyclopropanecarboxylic acid] and `Cc1nn(Cc2ccc(Cl)cc2)cc1-c1ccc(OC[C@@H]2C[C@H]2C(=O)O)cc1` (racemic) [Example 85, Trans-2-((4-(1-(4-chlorobenzyl)-3-methyl-1H-pyrazol-4-yl)phenoxy)methyl) cyclopropanecarboxylic acid] are within 1.5-fold of each other in EC50: 4960 nM for the first, 3810 nM for the second.

`O=C(O)[C@@H]1C[C@H]1COc1ccc(-c2cnn(Cc3ccccc3)c2)cc1` (racemic) [Example 83, Trans-2-((4-(1-benzyl-1H-pyrazol-4-yl)phenoxy)methyl)cyclopropanecarboxylic acid] and `Cc1nn(Cc2ccccc2)cc1-c1ccc(OC[C@@H]2C[C@H]2C(=O)O)cc1` (racemic) [Example 84, Trans-2-((4-(1-benzyl-3-methyl-1H-pyrazol-4-yl)phenoxy)methyl) cyclopropanecarboxylic acid] are within 1.5-fold of each other in EC50: 3050 nM for the first, 4310 nM for the second.
